Like-named read-outs stand apart in the source and are kept apart here.
How the values were obtained:
[1] = tested on: amyloid precursor protein (APP); test: Down regulation of APP in RAW cells by psychedelic drugs (Example 5); type: cell-based; settings: post 2 hours treatment (FIG. 9)
[2] = tested on: ABCF1; type: cell-based, murine; settings: RAW264.7, 10 nM, 100 nM, 500 nM, 2 hours post treatment, normalized to GAPDH (FIG. 2)
Experimental: • 1. Macrophage cell line RAW264.7 (ATCC) were grown to 80% confluency in growth media (DMEM+10% FBS+glutamine). • 2. Dilutions of the drugs were made at desired final concentrations for a Dose response experiment. The concentrations' used for this experiment are: 10 nM, 100 nM, 500 nM for Psilocin, Psylocibin, 4-Acetoxy-N, N-dimthyltryptamine, O-Acetyl Psilocin Fumerate, and 4-acetoxyindole. • 3. Untreated cells were used as negative control and Escitalopram at 0.3 mM was used as a positive control to activate ABCF1 expression for all the experiments. Analysis by qPCR:
• 1. 2 hours post treatment with drugs, the reaction was stopped by removing the media with the drug. Cells were then collected and RNA was isolated from these. • 2. After checking the quality of the RNA, cDNA was generated and qPCR was run with ABCF1 primers as the target gene and GAPDH as the house keeping gene. • 3. Normalized against the expression level of GAPDH, the fold change expression level of ABCF1 was calculated and tabulated for all treatment conditions.

[3] = tested on: ABCF1; test: Escitalopram induces ABCF1 in a macrophage cell line (real time RT-PCR); type: cell-based; settings: RAW macrophages, 0.3 mM, 1 hour
Experimental: RAW macrophages were plated at 1×10^5 cells/well and cultured for 2 days. The cells were incubated with 0.3 mM Escitalopram for 1 hour, and then harvested for total RNA, which was extracted for real time RT-PCR specific for ABCF1 and IL-4. CT values were normalized with CT value for the housekeeping gene from the DMSO control.

Row | SMILES | amyloid precursor protein (APP) expression [1] | ABCF1 transcription / expression [2] | ABCF1 expression ([3]; vs DMSO control (FIG. 1)) | difference in the expression (ABCF1 and IL-4) after drug treatment ([3]; 3 separate experiments) | ABCF1 transcription / expression ([2]; listed as psylocin)
1 | CC(=O)Oc1cccc2[nH]ccc12 [AOI, 4-acetoxyindole] | down regulation | enhance expression of ABCF1 | – | – | –
2 | CC(=O)Oc1cccc2[nH]cc(CCN(C)C)c12.O=C(O)/C=C/C(=O)O [APF, O-Acetyl Psilocin Fumerate] | down regulation | enhance expression of ABCF1 | – | – | –
3 | CN(C)CCC[C@@]1(c2ccc(F)cc2)OCc2cc(C#N)ccc21 [Escitalopram] | – | – | induces ABCF1 expression | consistent with polarization towards an M2-like phenotype | –
4 | CN(C)CCc1c[nH]c2cccc(O)c12 [psilocin, 4-hydroxy-N,N-dimethyltryptamine, reference compound] | – | enhance expression of ABCF1 | – | – | upregulate ABCF1 transcription
